Data as given in patent US12077503B2, “Substituted cyclic amides and their use as herbicides” (FMC CORPORATION, priority 2015, dated 2024).

Legend:
Assay type in all cases: in vivo
corn (Zea mays) [1] = assay: Test G Pre-Emergence Protocol; conditions: Zea mays, pre-emergence, 312 h, evaluated after 13 days; for plant injury at 15.625 g/ha: 15.625 g ai/ha; for plant injury at 15.625 g/ha / plant injury at 250 g/ha: read-out: Corn damage rating (100=total damage to plant; 0=no damage to plant); for plant injury at 62.5 g/ha: 62.5 g ai/ha, 100=total damage to plant, 0=no damage to plant, read-out: Corn damage rating; for plant injury at 250 g/ha: 250 g ai/ha
Outline: (§1)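 Pots of seeds in standard soil were grown for one day in a glasshouse (24/16 °C day/night, 14 h light, 65% humidity), then sprayed with compound in acetone/water 50:50 with 0.5% Tween 20 at 15.625, 62.5 or 250 g/ha. Damage was scored after 13 days on a 0 (none) to 100 (total) scale.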

[2] = system: velvetleaf (Abutilon theophrasti); assay: Test G Pre-Emergence Protocol; conditions: Abutilon theophrasti, pre-emergence, 312 h, evaluated after 13 days; for pest or weed control at 15.625 g/ha: 15.625 g ai/ha; for pest or weed control at 15.625 g/ha / pest or weed control at 250 g/ha: read-out: Velvetleaf damage rating (100=total damage to plant; 0=no damage to plant); for pest or weed control at 62.5 g/ha: 62.5 g ai/ha, 100=total damage to plant, 0=no damage to plant, read-out: Velvetleaf damage rating; for pest or weed control at 250 g/ha: 250 g ai/ha
Outline: as §1

[3] = system: ivy-leaved morning glory (Ipomoea hederacea); assay: Test G Pre-Emergence Protocol; conditions: Ipomoea, pre-emergence, 312 h, evaluated after 13 days; for pest or weed control at 15.625 g/ha: 15.625 g ai/ha; for pest or weed control at 15.625 g/ha / pest or weed control at 250 g/ha: read-out: Morningglory, Ivy-leaved damage rating (100=total damage to plant; 0=no damage to plant); for pest or weed control at 62.5 g/ha: 62.5 g ai/ha, 100=total damage to plant, 0=no damage to plant, read-out: Morningglory, Ivy-leaved damage rating; for pest or weed control at 250 g/ha: 250 g ai/ha
Outline: as §1

[4] = system: redroot pigweed (Amaranthus retroflexus); assay: Test G Pre-Emergence Protocol; conditions: Amaranthus retroflexus, pre-emergence, 312 h, evaluated after 13 days; for pest or weed control at 15.625 g/ha: 15.625 g ai/ha; for pest or weed control at 15.625 g/ha / pest or weed control at 250 g/ha: read-out: Pigweed, Redroot damage rating (100=total damage to plant; 0=no damage to plant); for pest or weed control at 62.5 g/ha: 62.5 g ai/ha, 100=total damage to plant, 0=no damage to plant, read-out: Pigweed, Redroot damage rating; for pest or weed control at 250 g/ha: 250 g ai/ha
Outline: as §1

[5] = system: barnyardgrass (Echinochloa crus-galli); assay: Test G Pre-Emergence Protocol; conditions: Echinochloa crus-galli, pre-emergence, 312 h, evaluated after 13 days; for pest or weed control at 15.625 g/ha: 15.625 g ai/ha; for pest or weed control at 15.625 g/ha / pest or weed control at 250 g/ha: read-out: Barnyardgrass damage rating (100=total damage to plant; 0=no damage to plant); for pest or weed control at 62.5 g/ha: 62.5 g ai/ha, 100=total damage to plant, 0=no damage to plant, read-out: Barnyardgrass damage rating; for pest or weed control at 250 g/ha: 250 g ai/ha
Outline: as §1

[6] = system: giant foxtail (Setaria faberi); assay: Test G Pre-Emergence Protocol; conditions: Setaria faberi, pre-emergence, 312 h, evaluated after 13 days; for pest or weed control at 15.625 g/ha: 15.625 g ai/ha; for pest or weed control at 15.625 g/ha / pest or weed control at 250 g/ha: read-out: Foxtail, Giant damage rating (100=total damage to plant; 0=no damage to plant); for pest or weed control at 62.5 g/ha: 62.5 g ai/ha, 100=total damage to plant, 0=no damage to plant, read-out: Foxtail, Giant damage rating; for pest or weed control at 250 g/ha: 250 g ai/ha
Outline: as §1

corn (Zea mays) [7] = assay: Test G Post-Emergence Protocol; conditions: Zea mays, post-emergence, 312 h, read-out: Corn damage rating; for plant injury at 15.625 g/ha: 15.625 g ai/ha, evaluated after 13 days (100=total damage to plant; 0=no damage to plant); for plant injury at 62.5 g/ha: 62.5 g ai/ha; for plant injury at 62.5 g/ha / plant injury at 250 g/ha: evaluated after 13 days, 100=total damage to plant, 0=no damage to plant; for plant injury at 250 g/ha: 250 g ai/ha
Outline: (§2)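 Damage was rated 13 days after treatment from 0 (none) to 100 (plant killed). Compound was applied as a spray at 15.625, 62.5 or 250 g/ha in 50:50 acetone/water containing 0.5% Tween 20, onto 8-day-old potted plants kept in a glasshouse (24/16 °C, 14 h light, 65% humidity).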

[8] = system: velvetleaf (Abutilon theophrasti); assay: Test G Post-Emergence Protocol; conditions: Abutilon theophrasti, post-emergence, 312 h, read-out: Velvetleaf damage rating; for pest or weed control at 15.625 g/ha: 15.625 g ai/ha, evaluated after 13 days (100=total damage to plant; 0=no damage to plant); for pest or weed control at 62.5 g/ha: 62.5 g ai/ha; for pest or weed control at 62.5 g/ha / pest or weed control at 250 g/ha: evaluated after 13 days, 100=total damage to plant, 0=no damage to plant; for pest or weed control at 250 g/ha: 250 g ai/ha
Outline: as §2

[9] = system: ivy-leaved morning glory (Ipomoea hederacea); assay: Test G Post-Emergence Protocol; conditions: Ipomoea, post-emergence, 312 h, read-out: Morningglory, Ivy-leaved damage rating; for pest or weed control at 15.625 g/ha: 15.625 g ai/ha, evaluated after 13 days (100=total damage to plant; 0=no damage to plant); for pest or weed control at 62.5 g/ha: 62.5 g ai/ha; for pest or weed control at 62.5 g/ha / pest or weed control at 250 g/ha: evaluated after 13 days, 100=total damage to plant, 0=no damage to plant; for pest or weed control at 250 g/ha: 250 g ai/ha
Outline: as §2

[10] = system: redroot pigweed (Amaranthus retroflexus); assay: Test G Post-Emergence Protocol; conditions: Amaranthus retroflexus, post-emergence, 312 h, read-out: Pigweed, Redroot damage rating; for pest or weed control at 15.625 g/ha: 15.625 g ai/ha, evaluated after 13 days (100=total damage to plant; 0=no damage to plant); for pest or weed control at 62.5 g/ha: 62.5 g ai/ha; for pest or weed control at 62.5 g/ha / pest or weed control at 250 g/ha: evaluated after 13 days, 100=total damage to plant, 0=no damage to plant; for pest or weed control at 250 g/ha: 250 g ai/ha
Outline: as §2

[11] = system: barnyardgrass (Echinochloa crus-galli); assay: Test G Post-Emergence Protocol; conditions: Echinochloa crus-galli, post-emergence, 312 h, read-out: Barnyardgrass damage rating; for pest or weed control at 15.625 g/ha: 15.625 g ai/ha, evaluated after 13 days (100=total damage to plant; 0=no damage to plant); for pest or weed control at 62.5 g/ha: 62.5 g ai/ha; for pest or weed control at 62.5 g/ha / pest or weed control at 250 g/ha: evaluated after 13 days, 100=total damage to plant, 0=no damage to plant; for pest or weed control at 250 g/ha: 250 g ai/ha
Outline: as §2

[12] = system: giant foxtail (Setaria faberi); assay: Test G Post-Emergence Protocol; conditions: Setaria faberi, post-emergence, 312 h, read-out: Foxtail, Giant damage rating; for pest or weed control at 15.625 g/ha: 15.625 g ai/ha, evaluated after 13 days (100=total damage to plant; 0=no damage to plant); for pest or weed control at 62.5 g/ha: 62.5 g ai/ha; for pest or weed control at 62.5 g/ha / pest or weed control at 250 g/ha: evaluated after 13 days, 100=total damage to plant, 0=no damage to plant; for pest or weed control at 250 g/ha: 250 g ai/ha
Outline: as §2

SMILES	plant injury at 15.625 g/ha (corn (Zea mays) [1])	plant injury at 62.5 g/ha (corn (Zea mays) [1])	plant injury at 250 g/ha (corn (Zea mays) [1])	pest or weed control at 15.625 g/ha [2]	pest or weed control at 62.5 g/ha [2]	pest or weed control at 250 g/ha [2]	pest or weed control at 15.625 g/ha [3]	pest or weed control at 62.5 g/ha [3]	pest or weed control at 250 g/ha [3]	pest or weed control at 15.625 g/ha [4]	pest or weed control at 62.5 g/ha [4]	pest or weed control at 250 g/ha [4]	pest or weed control at 15.625 g/ha [5]	pest or weed control at 62.5 g/ha [5]	pest or weed control at 250 g/ha [5]	pest or weed control at 15.625 g/ha [6]	pest or weed control at 62.5 g/ha [6]	pest or weed control at 250 g/ha [6]	plant injury at 15.625 g/ha (corn (Zea mays) [7])	plant injury at 62.5 g/ha (corn (Zea mays) [7])	also measured
Cc1cc(C2CN(C)C(=O)C2C(=O)Nc2cccc(F)c2F)cc(C(F)(F)F)c1 (stereo not drawn) [Compound 1723]	0%	0%	60%	0%	0%	10%	0%	0%	10%	0%	0%	30%	10%	40%	90%	60%	70%	90%	30%	60%	plant injury at 250 g/ha (corn (Zea mays) [7]): 70%; pest or weed control at 15.625 g/ha [8]: 10%; pest or weed control at 62.5 g/ha [8]: 10%; pest or weed control at 250 g/ha [8]: 20%; pest or weed control at 15.625 g/ha [9]: 30%; pest or weed control at 62.5 g/ha [9]: 70%; pest or weed control at 250 g/ha [9]: 40%; pest or weed control at 15.625 g/ha [10]: 20%; pest or weed control at 62.5 g/ha [10]: 20%; pest or weed control at 250 g/ha [10]: 30%; pest or weed control at 15.625 g/ha [11]: 30%; pest or weed control at 62.5 g/ha [11]: 80%; pest or weed control at 250 g/ha [11]: 80%; pest or weed control at 15.625 g/ha [12]: 70%; pest or weed control at 62.5 g/ha [12]: 80%; pest or weed control at 250 g/ha [12]: 80%
CC(C)Oc1cc(OC(F)(F)F)cc(C2CN(C)C(=O)C2C(=O)Nc2cccc(F)c2F)c1 (stereo not drawn) [Compound 1726]	0%	0%	30%	0%	0%	0%	0%	0%	0%	0%	0%	10%	0%	50%	70%	10%	50%	80%	10%	30%	plant injury at 250 g/ha (corn (Zea mays) [7]): 70%; pest or weed control at 15.625 g/ha [8]: 0%; pest or weed control at 62.5 g/ha [8]: 0%; pest or weed control at 250 g/ha [8]: 20%; pest or weed control at 15.625 g/ha [9]: 10%; pest or weed control at 62.5 g/ha [9]: 10%; pest or weed control at 250 g/ha [9]: 70%; pest or weed control at 15.625 g/ha [10]: 20%; pest or weed control at 62.5 g/ha [10]: 0%; pest or weed control at 250 g/ha [10]: 40%; pest or weed control at 15.625 g/ha [11]: 0%; pest or weed control at 62.5 g/ha [11]: 30%; pest or weed control at 250 g/ha [11]: 70%; pest or weed control at 15.625 g/ha [12]: 0%; pest or weed control at 62.5 g/ha [12]: 70%; pest or weed control at 250 g/ha [12]: 70%
